Data taken from PMC9200803, “Design, synthesis, and biological evaluation of tetrahydroquinolinones and tetrahydroquinolines with anticancer activity” (Scientific Reports, 2022).

What was measured:
HCT-116 cells [1] = assay: Colony formation (clonogenic) assay; assay type: cell-based, human; details: HCT-116, 24 h pretreatment, 9 days culture
Protocol: A total of 500 HCT-116 cells/well was seeded into six-well plates. After attachment, cells were pretreated with DMSO (1%) or various concentrations of 20d and 19b for 24 h. Following incubation, the medium was changed, and cells were cultured for 9 days. After culturing, cells were washed with phosphate-buffered saline (PBS), fixed with 100% methanol for 30 min, and then stained with 0.5% crystal violet for 15 min. The plates were air-dried, and visible colonies were counted using ImageJ software. The percentage viability of cells was calculated in comparison to the control.

HCT-116 cells [2] = assay: Annexin V-FITC / PI staining, flow cytometry; assay type: cell-based, human; details: HCT-116, Annexin V/PI
From the text: Due to its ability to mediate the redox signaling pathways, ROS interplays between two major types of programmed cell death: autophagy and apoptosis. One of the early events in the process of apoptosis is the translocation of phosphatidylserine to the exposed membrane surface, which can be detected using Annexin V, a protein with a high affinity to this phospholipid. In order to study the impact of 20d on apoptotic cell death, flow cytometry analyses with double-staining using Annexin V-fluorescein isothiocyanate (FITC) conjugate and propidium ioidide (PI) was performed.
To determine the proapoptotic activity of compounds, cells were seeded into Petri dishes. […] DMSO (1%, Merck) and Etoposide (10 μM, Sigma-Aldrich) were used as references. Cells were harvested and stained with FITC-Annexin V, (Thermo Fisher, V13242) according to the manufacturer’s instructions. Finally, cells were stained with propidium iodide (Thermo Fisher) and assessed using a Guava easyCyte 8 cell sorter (Merck Millipore). The results were analyzed using FlowJo v10 software.

[3] = test system: hMLH1-proficient RKO cells; assay: ROS level, H2DCFDA probe, MMR-proficient RKO; assay type: cell-based, human; details: 1 h of exposure, vs control
Protocol: (§1) Then, we confirmed whether the induction of cellular stress by 20d is related to MMR deficiency by exposing MMR-deficient and MMR-proficient cells to the compound for different times and measuring the ROS levels. Our results indicated a greater increase in the level of ROS after 1 h of exposure in 20d-treated MMR-deficient cells than in MMR-proficient cells (54.71 ± 2.70% and 22.27 ± 1.7%, respectively), in comparison to control (Fig. 7).
(§2) The […] ROS levels were determined using an H2DCFDA (2′,7′-dichlorodihydrofluorescein diacetate) probe (Thermo Fisher) following the manufacturer’s protocol. […] DMSO (1%, Merck) and 250 μM H2O2 were used as a negative and positive control, respectively. NAC (500 μM, Sigma-Aldrich) was used as an ROS scavenger to confirm the ROS activity. After treatment with 20d and 19b, cells were incubated with H2DCFDA at 37 °C for 30 min. Subsequently, cells were harvested by trypsinization, rinsed with PBS, and stained with 7-AAD (Thermo Fisher). Finally, the stained cells were analyzed by flow cytometry using a Guava easyCyte 8 cell sorter (Merck Millipore) and FlowJo v10 software.

HCT-116 cells [4] = assay: ROS level, H2DCFDA probe, flow cytometry, HCT-116; assay type: cell-based
Protocol: Reactive oxygen species (ROS) affect the cellular redox homeostasis resulting in extensive and irreparable damage and ultimately cell death. Anticancer compounds with cytotoxic properties often cause disturbances in the redox state in cells. Therefore, we performed a time-dependent kinetic analysis of the intracellular ROS level in colon cancer cell lines after treatment with 20d.
as §2
ROS analysis was performed by seeding the cells into cover glass-bottom 24-well plates for live-cell imaging. Cells were treated with compounds and stained as described above for flow cytometry. […]

A-549 cells = assay: ROS level, H2DCFDA probe, flow cytometry, A-549; assay type: cell-based, human; details: A-549, IC50 concentration, 1-24 h
HCT-116 cells [5] = assay: Western blot protein expression in HCT-116 cells; assay type: cell-based, human
Protocol: HCT-116 cells were seeded into 60-mm Petri dishes at a density of 1.5 × 10^6 cells per dish and incubated overnight. […] After treatment, cells were lysed in Laemmli buffer with a protease and phosphatase inhibitors cocktail (Roche), followed by sonification The lysate was cleared by centrifuging at 16,000×g for 15 min at 12 °C. The supernatant was collected, and the extract was quantified for protein using the DC Protein Assay (Bio-Rad). Proteins were resolved by 10% or 12% sodium dodecyl sulfate–polyacrylamide gel electrophoresis and transferred to polyvinylidene difluoride membranes (Bio-Rad). Membranes were blocked using 5% (w/v) bovine serum albumin (Sigma-Aldrich) in 1× TBST (pH 7.4 and 0.1% Tween-20) for 1 h at room temperature and subsequently incubated overnight with primary antibodies at 4 °C. The blots were washed thrice with TBST and then incubated with horseradish peroxidase-conjugated antibodies for 1 h at room temperature. After washing, the membranes were evaluated for detecting the protein bands using enhanced chemiluminescence detection reagent kit (Thermo Fisher) and ChemiDoc XRS + Imaging System (Bio-Rad). The band intensity was measured using ImageLab 5.2 software (Bio-Rad).

[6] = test system: hMLH1-deficient RKO cells; assay: ROS level, H2DCFDA probe, MMR-deficient RKO; assay type: cell-based, human; details: 1 h of exposure, vs control
Protocol: as §1, §2

O=C(Nc1cccc(F)c1)OC1CCCc2c(-c3ccccc3)cc(=O)[nH]c21 (stereo not shown) [Compound 20d, (2-oxo-4-phenyl-5,6,7,8-tetrahydroquinolin-8-yl) N-(3-fluorophenyl)carbamate]
formation of colonies (HCT-116 cells [1]): effectively inhibited the formation of colonies in a concentration-dependent manner
early and late apoptotic and necrotic fractions (HCT-116 cells [2]): on the same level as in DMSO-treated group
increase in the level of ROS [3]: 22.27 ± 1.7%
increase in ROS level compared to vehicle (HCT-116 cells [4]; HCT-116, IC50 concentration, 1-24 h): ~ 30%
cytotoxic effect after pretreatment with NAC (HCT-116 cells [4]; HCT-116, NAC 500 μM): NAC diminished the cytotoxic effect
increase in ROS level compared to vehicle (A-549 cells): ~5%
expression of LAMP-1 protein (HCT-116 cells [5]; HCT-116): time-dependent increase
expression of vimentin (HCT-116 cells [5]; HCT-116): significantly altered
level of phospho-AKT (Ser473) (HCT-116 cells [5]; HCT-116): significantly reduced
level of phospho-mTOR (Ser2448) (HCT-116 cells [5]; HCT-116): significantly reduced
expression of p-γ-H2AX (HCT-116 cells [5]; HCT-116, 24–72 h, immunoblot and immunofluorescence): significantly increased
cyclin D1 expression (HCT-116 cells [5]; HCT-116, 72 h, vs DMSO): slight inhibition
β-catenin (HCT-116 cells [5]; HCT-116, even after 24 h): caused the cleavage of β-catenin
levels of LC3-II (HCT-116 cells [5]; HCT-116, vs control): higher
expression of p21 (HCT-116 cells [5]; HCT-116, vs control, p < 0.001): markedly higher
expression of p27 (HCT-116 cells [5]; HCT-116, vs control, p < 0.001): markedly higher
expression of p53 (HCT-116 cells [5]; HCT-116, vs control, p < 0.001): markedly higher
expression of c-myc (HCT-116 cells [5]; HCT-116, vs vehicle): downregulated
increase in the level of ROS [6]: 54.71 ± 2.70%
